The source of these data is ChEMBL document CHEMBL1137543, “Phenylimidazole derivatives as specific inhibitors of bacterial enoyl-acyl carrier protein reductase FabK” (Bioorg Med Chem, 2007).

For orientation: IC50 means the concentration that inhibits the measured activity by half. The low end stands for greater potency, the high end for weaker potency. A word on the MIC: it is the lowest concentration that inhibits growth of the organism. Read a high MIC as a less susceptible organism.

Values after ≈ are worked out from the molar mass of the structure shown. A value given as a limit tells only on which side of the number the result lay.

In assay [1] the target is T1, Enoyl-[acyl-carrier-protein] reductase [NADH] FabI (Escherichia coli K-12, UniProt P0AEK4).
T1 sequence (P0AEK4 whole entry): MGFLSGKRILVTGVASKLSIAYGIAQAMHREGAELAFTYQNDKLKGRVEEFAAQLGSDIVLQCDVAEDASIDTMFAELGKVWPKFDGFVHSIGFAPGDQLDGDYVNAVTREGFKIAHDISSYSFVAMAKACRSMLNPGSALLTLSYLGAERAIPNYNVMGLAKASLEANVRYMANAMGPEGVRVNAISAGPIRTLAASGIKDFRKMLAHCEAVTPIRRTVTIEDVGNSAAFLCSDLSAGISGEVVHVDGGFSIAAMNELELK
The assay is described as follows: Inhibition of Escherichia coli enoyl-ACP reductase FabI.

For assay [2], the target named is T2, Enoyl-(Acyl-carrier-protein) reductase (Streptococcus pneumoniae, UniProt Q9FBC5).
T2 sequence (Q9FBC5 whole entry): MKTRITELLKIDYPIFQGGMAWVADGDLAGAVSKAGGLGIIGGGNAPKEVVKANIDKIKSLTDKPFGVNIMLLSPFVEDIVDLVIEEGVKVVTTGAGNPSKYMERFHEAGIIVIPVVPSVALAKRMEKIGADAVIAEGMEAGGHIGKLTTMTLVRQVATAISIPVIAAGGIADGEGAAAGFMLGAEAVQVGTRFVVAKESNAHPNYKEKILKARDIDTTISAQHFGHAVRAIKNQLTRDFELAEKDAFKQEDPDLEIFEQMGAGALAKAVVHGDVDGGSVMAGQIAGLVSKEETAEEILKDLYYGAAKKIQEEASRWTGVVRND
The assay is described as follows: Inhibition of Streptococcus pneumoniae enoyl-ACP reductase FabK.

Another assay has as its system Streptococcus pneumoniae. Kind of assay: Antibacterial activity against Streptococcus pneumoniae KU197 mutant by broth microdilution method. Type of assay: functional. For orientation: Dilution methods test growth across graded concentrations, often in twofold steps.
The test system of the next assay is K562. The assay is described as follows: Cytotoxicity against human K562 cells. It is filed as functional, cell-based.

With `CS(=O)(=O)c1ccc2nc(NC(=O)NCc3cccs3)sc2c1`, the values for the IC50 in assay [1] and in assay [2] were over 32 µM and 30 µM, respectively. Also, the MIC with Streptococcus pneumoniae is over 32 µg/mL.

Consider `O=C(CO/N=C/c1cccc([N+](=O)[O-])c1)Nc1nc2ccccc2s1`, for which the IC50 is over 32 µM in assay [1] and 1.1 µM in assay [2]. This compound also showed an MIC against Streptococcus pneumoniae of over 32 µg/mL.

Consider `COc1cccc2sc(NC(=O)NCc3nc4ccccc4[nH]3)nc12`, for which the IC50 in assay [1] and in assay [2] was over 32 µM each time.

Regarding `O=C(NCc1nc2ccccc2[nH]1)Nc1nc2ccc(F)cc2s1`, the IC50 in assay [1] is over 32 µM; in assay [2], 6.4 µM.

In the case of `COc1ccc2sc(NC(=O)NCc3nc4ccccc4[nH]3)nc2c1`, the IC50 in assay [1] and in assay [2] was over 32 µM each time.

As for `O=C(CSc1nc2ccccc2[nH]1)NCc1nc2ccccc2s1`, the IC50 in assay [1] and in assay [2] was over 32 µM throughout. In the assay on Streptococcus pneumoniae, this compound yielded an MIC of over 32 µg/mL.

For `COc1ccc2nc(NC(=O)NCc3nc4ccccc4[nH]3)sc2c1`, the IC50 in assay [1] is over 32 µM; in assay [2], 2 µM. In addition, in the assay on Streptococcus pneumoniae, the MIC came out at 16 µg/mL (≈ 45.3 µM).

Regarding `NC(=O)c1ccc(Sc2cnc(NC(=O)NCc3nc(-c4ccccc4)c[nH]3)s2)cc1`, the IC50 in assay [1] is over 32 µM; in assay [2], 0.037 µM. For the same compound, the MIC in the assay with Streptococcus pneumoniae worked out at 2 µg/mL (≈ 4.44 µM).

In the case of `CS(=O)(=O)c1ccc2nc(NC(=O)NCCc3cnc[nH]3)sc2c1`, the IC50 in assay [1] and in assay [2] was over 32 µM each time.

`Oc1cc(Cl)ccc1Oc1ccc(Cl)cc1Cl` [TRICLOSAN] returned an IC50 in assay [2] of over 32 µM.

For `N#Cc1ccc2nc(NC(=O)NCc3nc4ccccc4[nH]3)sc2c1`, the IC50 in assay [1] is over 32 µM; in assay [2], 4.5 µM. The compound also registered an MIC against Streptococcus pneumoniae of 8 µg/mL (≈ 23 µM).

`O=C(NCc1ncc(-c2ccc(Br)cc2)[nH]1)Nc1ncc(Sc2ccccn2)s1`: the IC50 in assay [1] is over 32 µM; in the assay on K562, over 20 µM. This compound had an MIC against Streptococcus pneumoniae of 0.25 µg/mL (≈ 0.513 µM).

On to `CS(=O)(=O)c1ccc2nc(NC(=O)NCc3nc4ccccc4[nH]3)sc2c1`, for which the IC50 in assay [1] was over 32 µM; in assay [2], 0.74 µM. Further, inhibition of growth in the assay on Streptococcus pneumoniae (MIC) required 4 µg/mL (≈ 9.96 µM).

For the compound `O=C(NCc1nc(-c2ccccc2)c[nH]1)Nc1nc(-c2ccccc2)cs1`, the IC50 in assay [1] and in assay [2] was over 32 µM in each case.

On to `CS(=O)(=O)c1ccc2nc(NC(=O)NCc3nc(-c4ccccc4)c[nH]3)sc2c1`, for which the IC50 in assay [1] is over 32 µM; in assay [2] it was 0.088 µM. Also, the MIC against Streptococcus pneumoniae came out at 0.5 µg/mL (≈ 1.17 µM).

With `Cc1ccc2nc(NC(=O)NCc3nc4ccccc4[nH]3)sc2c1`, the IC50 in assay [1] is over 32 µM; in assay [2], 2.6 µM. The MIC in the assay with Streptococcus pneumoniae was found to be 16 µg/mL (≈ 47.4 µM).

Regarding `O=C(NCc1nc2ccccc2[nH]1)Nc1nc2ccccc2s1`, the figures for the IC50 in assay [1] and in assay [2] were over 32 µM and 6.9 µM, respectively. Further, in the assay with Streptococcus pneumoniae, the MIC stood at 32 µg/mL (≈ 99 µM).

As to `O=C(NCc1nc(-c2ccccc2)c[nH]1)Nc1ncc(-c2ccccc2)s1`, the results for the IC50 in assay [1] and in assay [2] were over 32 µM and 0.38 µM, respectively. The MIC against Streptococcus pneumoniae worked out at 4 µg/mL (≈ 10.7 µM).

`O=C(NCc1nc(-c2ccccc2)c[nH]1)Nc1ncc(Sc2ccc(C(=O)O)cc2)s1`: the IC50 in assay [1] was over 32 µM; in assay [2], 0.098 µM. In addition, the lowest concentration to inhibit growth against Streptococcus pneumoniae (MIC) was 8 µg/mL (≈ 17.7 µM).

On to `O=C(NCc1ncc(-c2ccccc2)[nH]1)Nc1ncc(Sc2ccccn2)s1`, for which the IC50 in assay [1] was over 32 µM. The compound also came in with an MIC in the assay with Streptococcus pneumoniae of 2 µg/mL (≈ 4.9 µM).

With `O=C(Nc1nc2ccccc2s1)OCc1nc2ccccc2[nH]1`, the IC50 in assay [1] and in assay [2] was over 32 µM throughout. Moreover, in the assay on Streptococcus pneumoniae, the MIC is over 32 µg/mL.

For `O=C(CSc1nc2ccccc2[nH]1)Nc1nc2ccccc2s1`, the IC50 in assay [1] and in assay [2] was over 32 µM throughout. The same compound gave an MIC against Streptococcus pneumoniae of over 32 µg/mL.

With `CS(=O)(=O)c1ccc2nc(NC(=O)NCc3ccc(-c4ccccn4)s3)sc2c1`, the IC50 in assay [1] is over 32 µM; in assay [2], 3.4 µM. Further, in the assay on Streptococcus pneumoniae, the MIC is over 32 µg/mL.

On to `CS(=O)(=O)c1ccc2nc(NC(=O)NCc3cccnc3)sc2c1`, for which the IC50 in assay [1] was over 32 µM; in assay [2] it was 23 µM. Also, the MIC in the assay with Streptococcus pneumoniae is over 32 µg/mL.

Compound `O=C(NCc1ncc(-c2cccc(Br)c2)[nH]1)Nc1ncc(Sc2ccccn2)s1` yielded an IC50 in assay [1] of over 32 µM. The compound further gave a minimum inhibitory concentration (MIC) against Streptococcus pneumoniae of 16 µg/mL (≈ 32.8 µM).

With `O=C(NCc1nc(-c2ccccc2)c[nH]1)Nc1ncc(Sc2ccccc2)s1`, the IC50 is over 33 µM in assay [1] and 0.037 µM in assay [2]. The same compound gave an MIC in the assay on Streptococcus pneumoniae of 2 µg/mL (≈ 4.91 µM).

As for `O=C(NCc1ncc(-c2ccc(Cl)c(Cl)c2)[nH]1)Nc1ncc(Sc2ccccn2)s1`, the IC50 in assay [1] was over 32 µM; in assay [2], 0.0037 µM. The compound also gave an MIC in the assay on Streptococcus pneumoniae of 1 µg/mL (≈ 2.09 µM).
